Experimental data taken from US20170190671A1, “BIS(ARYL)CATECHOL DERIVATIVES AS HERBICIDES” (E I DU PONT DE NEMOURS AND COMPANY, priority 2014, published 2017).

Tests used:
Format in all cases: in vivo
Conditions in all cases: scale 0 to 100
[1] = tested on: horseweed (Conyza canadensis); test: Test E preemergence
Procedure, shortened: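 Seeds were sown in silt loam soil and sprayed preemergence with test chemicals in a non-phytotoxic solvent mixture containing surfactant. For postemergence, plants at the 1- to 4-leaf stage (2 to 18 cm) in peat-based potting medium were treated. After 14 to 21 days in a greenhouse, injury was rated visually against controls, 0 (no effect) to 100 (complete control).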

[2] = tested on: waterhemp (common waterhemp, Amaranthus rudis); test: Test E postemergence
Excerpt: (§1) Seeds of plant species selected from corn (Zea mays), soybean (Glycine max), velvetleaf (Abutilon theophrasti), cocklebur (common cocklebur, Xanthium strumarium), lambsquarters (Chenopodium album), wild poinsettia (Euphorbia heterophylla), palmer pigweed (Amaranthus palmeri), waterhemp (common waterhemp, Amaranthus rudis), surinam grass (Brachiaria decumbens), large (Lg) crabgrass (Digitaria sanguinalis), Brazilian crabgrass (Digitaria horizontalis), fall panicum (Panicum dichotomiflorum), giant foxtail (Setaria faberii), green foxtail (Setaria viridis), goosegrass (Eleusine indica), johnsongrass (Sorghum halepense), ragweed (common ragweed, Ambrosia elatior), barnyardgrass (Echinochloa crus-galli), sandbur (southern sandbur, Cenchrus echinatus), arrowleaf sida (Sida rhombifolia), Italian ryegrass (Lolium multiflorum), dayflower (Virginia (VA) dayflower, Commelina virginica), field bindweed (Convolvulus arvensis), morningglory (Ipomoea coccinea), nightshade (eastern black nightshade, Solanum ptycanthum), kochia (Kochia scoparia), yellow nutsedge (Cyperus esculentus), horseweed (Conyza canadensis), and hairy beggarticks (Bidens pilosa), were planted into a silt loam soil and treated preemergence with test chemicals formulated in a non-phytotoxic solvent mixture which included a surfactant.
(§2) At the same time, plants from these crop and weed species and also waterhemp_RES1, (ALS & Triazine resistant common waterhemp, Amaranthus rudis), and waterhemp_RES2, (ALS & HPPD resistant common waterhemp, Amaranthus rudis) were planted in pots containing Redi-Earth® planting medium (Scotts Company, 14111 Scottslawn Road, Marysville, Ohio 43041) comprising spaghnum peat moss, vermiculite, wetting agent and starter nutrients were treated with postemergence applications of test chemicals formulated in the same manner. Plants ranged in height from 2 to 18 cm for postemergence treatments (1- to 4-leaf stage). Treated plants and controls were maintained in a greenhouse for 14 to 21 days, after which time all species were compared to controls and visually evaluated. Plant response ratings, summarized in Table E, are based on a scale of 0 to 100 where 0 is no effect and 100 is complete control. A dash (-) response means no test result.

[3] = tested on: waterhemp_RES2 (ALS & HPPD resistant common waterhemp, Amaranthus rudis); test: Test E postemergence
Excerpt: as §1, §2

[4] = tested on: corn (Zea mays); test: Test E postemergence
Excerpt: as §1, §2

[5] = tested on: field bindweed (Convolvulus arvensis); test: Test E postemergence
Excerpt: as §1, §2

[6] = tested on: palmer pigweed (Amaranthus palmeri); test: Test E postemergence
Excerpt: as §1, §2

[7] = tested on: Brazilian crabgrass (Digitaria horizontalis); test: Test E postemergence
Excerpt: as §1, §2

[8] = tested on: horseweed (Conyza canadensis); test: Test E postemergence
Excerpt: as §1, §2

[9] = tested on: fall panicum (Panicum dichotomiflorum); test: Test E postemergence
Excerpt: as §1, §2

[10] = tested on: dayflower (Virginia (VA) dayflower, Commelina virginica); test: Test E postemergence
Excerpt: as §1, §2

[11] = tested on: ragweed (common ragweed, Ambrosia elatior); test: Test E postemergence
Excerpt: as §1, §2

[12] = tested on: hairy beggarticks (Bidens pilosa); test: Test E postemergence
Excerpt: as §1, §2

[13] = tested on: sandbur (southern sandbur, Cenchrus echinatus); test: Test E postemergence
Excerpt: as §1, §2

[14] = tested on: kochia (Kochia scoparia); test: Test E postemergence
Excerpt: as §1, §2

[15] = tested on: waterhemp_RES1 (ALS & Triazine resistant common waterhemp, Amaranthus rudis); test: Test E postemergence
Excerpt: as §1, §2

[16] = tested on: arrowleaf sida (Sida rhombifolia); test: Test E postemergence
Excerpt: as §1, §2

[17] = tested on: soybean (Glycine max); test: Test E postemergence
Excerpt: as §1, §2

[18] = tested on: barnyardgrass (Echinochloa crus-galli); test: Test E postemergence
Excerpt: as §1, §2

[19] = tested on: Italian ryegrass (Lolium multiflorum); test: Test E postemergence
Excerpt: as §1, §2

SMILES: N#Cc1cccc(Oc2ncc(Cl)cn2)c1Oc1ncc(C(F)(F)F)cn1 [Compound 38, 3-[(5-chloro-2-pyrimidinyl)oxy]-2-[[5-(trifluoromethyl)-2-pyrimidinyl]oxy]-benzonitrile]
- Plant response rating, Horseweed ([1]; 16 g ai/ha): 0
- Plant response rating, Horseweed ([1]; 31 g ai/ha): 0
- Plant response rating, Horseweed ([1]; 62 g ai/ha): 100
- Plant response rating, Horseweed ([1]; 125 g ai/ha): 98
- Plant response rating, Waterhemp ([2]; 16 g ai/ha): 85
- Plant response rating, Waterhemp ([2]; 31 g ai/ha): 90
- Plant response rating, Waterhemp ([2]; 62 g ai/ha): 95
- Plant response rating, Waterhemp ([2]; 125 g ai/ha): 95
- Plant response rating, Waterhemp_RES2 ([3]; 16 g ai/ha): 75
- Plant response rating, Waterhemp_RES2 ([3]; 31 g ai/ha): 85
- Plant response rating, Waterhemp_RES2 ([3]; 62 g ai/ha): 90
- Plant response rating, Waterhemp_RES2 ([3]; 125 g ai/ha): 95
- Plant response rating, Corn ([4]; 16 g ai/ha): 0
- Plant response rating, Corn ([4]; 31 g ai/ha): 0
- Plant response rating, Corn ([4]; 62 g ai/ha): 15
- Plant response rating, Corn ([4]; 125 g ai/ha): 20
- Plant response rating, Field Bindweed ([5]; 16 g ai/ha): 60
- Plant response rating, Field Bindweed ([5]; 31 g ai/ha): 65
- Plant response rating, Field Bindweed ([5]; 62 g ai/ha): 80
- Plant response rating, Field Bindweed ([5]; 125 g ai/ha): 85
- Plant response rating, Pigweed, Palmer ([6]; 16 g ai/ha): 60
- Plant response rating, Pigweed, Palmer ([6]; 31 g ai/ha): 75
- Plant response rating, Pigweed, Palmer ([6]; 62 g ai/ha): 60
- Plant response rating, Pigweed, Palmer ([6]; 125 g ai/ha): 90
- Plant response rating, Crabgrass, Brazil ([7]; 16 g ai/ha): 10
- Plant response rating, Crabgrass, Brazil ([7]; 31 g ai/ha): 15
- Plant response rating, Crabgrass, Brazil ([7]; 62 g ai/ha): 20
- Plant response rating, Crabgrass, Brazil ([7]; 125 g ai/ha): 20
- Plant response rating, Horseweed ([8]; 16 g ai/ha): 5
- Plant response rating, Horseweed ([8]; 31 g ai/ha): 10
- Plant response rating, Horseweed ([8]; 62 g ai/ha): 20
- Plant response rating, Horseweed ([8]; 125 g ai/ha): 40
- Plant response rating, Panicum, Fall ([9]; 16 g ai/ha): 10
- Plant response rating, Panicum, Fall ([9]; 31 g ai/ha): 10
- Plant response rating, Panicum, Fall ([9]; 62 g ai/ha): 10
- Plant response rating, Dayflower, VA ([10]; 16 g ai/ha): 40
- Plant response rating, Dayflower, VA ([10]; 31 g ai/ha): 50
- Plant response rating, Dayflower, VA ([10]; 62 g ai/ha): 60
- Plant response rating, Dayflower, VA ([10]; 125 g ai/ha): 60
- Plant response rating, Ragweed ([11]; 16 g ai/ha): 20
- Plant response rating, Ragweed ([11]; 31 g ai/ha): 20
- Plant response rating, Ragweed ([11]; 62 g ai/ha): 40
- Plant response rating, Ragweed ([11]; 125 g ai/ha): 50
- Plant response rating, Beggarticks ([12]; 16 g ai/ha): 35
- Plant response rating, Beggarticks ([12]; 31 g ai/ha): 40
- Plant response rating, Beggarticks ([12]; 62 g ai/ha): 40
- Plant response rating, Beggarticks ([12]; 125 g ai/ha): 50
- Plant response rating, Sandbur ([13]; 16 g ai/ha): 0
- Plant response rating, Sandbur ([13]; 31 g ai/ha): 0
- Plant response rating, Sandbur ([13]; 62 g ai/ha): 10
- Plant response rating, Sandbur ([13]; 125 g ai/ha): 20
- Plant response rating, Kochia ([14]; 16 g ai/ha): 80
- Plant response rating, Kochia ([14]; 31 g ai/ha): 80
- Plant response rating, Kochia ([14]; 62 g ai/ha): 100
- Plant response rating, Kochia ([14]; 125 g ai/ha): 98
- Plant response rating, Waterhemp_RES1 ([15]; 16 g ai/ha): 80
- Plant response rating, Waterhemp_RES1 ([15]; 31 g ai/ha): 90
- Plant response rating, Waterhemp_RES1 ([15]; 62 g ai/ha): 90
- Plant response rating, Waterhemp_RES1 ([15]; 125 g ai/ha): 95
- Plant response rating, Arrowleaf Sida ([16]; 16 g ai/ha): 60
- Plant response rating, Arrowleaf Sida ([16]; 31 g ai/ha): 80
- Plant response rating, Arrowleaf Sida ([16]; 62 g ai/ha): 90
- Plant response rating, Arrowleaf Sida ([16]; 125 g ai/ha): 90
- Plant response rating, Soybean ([17]; 16 g ai/ha): 70
- Plant response rating, Soybean ([17]; 31 g ai/ha): 80
- Plant response rating, Soybean ([17]; 62 g ai/ha): 95
- Plant response rating, Soybean ([17]; 125 g ai/ha): 98
- Plant response rating, Barnyardgrass ([18]; 16 g ai/ha): 0
- Plant response rating, Barnyardgrass ([18]; 31 g ai/ha): 10
- Plant response rating, Barnyardgrass ([18]; 62 g ai/ha): 10
- Plant response rating, Barnyardgrass ([18]; 125 g ai/ha): 20
- Plant response rating, Ryegrass, Italian ([19]; 16 g ai/ha): 0
- Plant response rating, Ryegrass, Italian ([19]; 31 g ai/ha): 5
- Plant response rating, Ryegrass, Italian ([19]; 62 g ai/ha): 10
- Plant response rating, Ryegrass, Italian ([19]; 125 g ai/ha): 15
